In article PMC7169845, “Synthesis and Bioactivity of Phthalimide Analogs as Potential Drugs to Treat Schistosomiasis, a Neglected Disease of Poverty” (Pharmaceuticals, 2020):

Legend:
[1] = system: HepG2-A16-CD81EGFP cells; test: HepG2 cell cytotoxicity assay (CellTiter-Glo); assay type: cell-based; details: Homo sapiens, 72 h; for EC50: counter toxicity
Description: HepG2-A16-CD81EGFP cells (human hepatocarcinoma HepG2 cells stably transformed to express the tetraspanin CD81 receptor [51, 52]) were cultured at 37 °C in 5% CO2 in DMEM (without phenol red; Thermo Fisher Scientific, Waltham, MA, USA) supplemented with 10% FBS, 0.29 mg/mL glutamine, 100-unit penicillin and 100 μg/mL streptomycin. For cytotoxicity assays, compounds were prepared in 12-point 1:3 serial dilutions in DMSO starting at 10 mM. Then, 50 nL of compound (0.5% final DMSO concentration) were transferred with an Acoustic Transfer System (ATS) (Biosero) into white, solid bottom 1536-well assay plates (Greiner BioOne custom GNF mold; Monroe, NC, USA). Puromycin (12-point serial dilution starting at 10 μM) and 0.5% DMSO were used as positive and negative controls, respectively. After addition of compound, HepG2-A16-CD81EGFP cells in 10 µL of the above medium (5% FBS) were seeded into the assay plates at a density of 3,000 cells per well. Assay plates were incubated at 37 °C in 5% CO2for 72 h. To assess the HepG2 viability, the assay medium was removed by inverted centrifugation of the plate at 150 xg for 30 s. Then, 2 μL per well of CellTiter-Glo reagent (Promega diluted 1:2 with deionized water) was added using a MicroFlo liquid handler (BioTek). Immediately after addition of the CellTiter-Glo reagent, the luminescence was measured with an EnVision Multilabel reader (PerkinElmer). EC50 values were calculated using the normalized bioluminescence intensity and a non-linear, variable slope, four-parameter regression curve-fitting model in Prism 5 (GraphPad Software Inc., San Diego, CA, USA).

[2] = system: S. mansoni adults; test: Phenotypic screen of S. mansoni adult worms (severity score); assay type: cell-based, Schistosoma mansoni; details: for ADULT SEVERITY SCORES @ 10 µM, 1 h / ADULT SEVERITY SCORES @ 10 µM, 5 h / ADULT SEVERITY SCORES @ 10 µM, 24 h: score 0-4; for Adult Severity Score (10 µM) 1 h / Adult Severity Score (10 µM) 5 h / Adult Severity Score (10 µM) 24 h: score 0 to 4
Description: (§1) Functionalized Pht-based molecules were synthesized, and phenotypically screened at 10 µM as a function of time against S. Mansoni somules (up to 72 h) and adults (up to 24 h). The resulting phenotypes were classified using a previously described nomenclature that records the many non-exclusive changes (descriptors) that can occur in the parasite in response to chemical insult. Each descriptor is converted into a value from 0 (no effect) to 4 (maximal effect) to allow for comparisons of effects on the parasite between compounds [40, 41, 42, 43]. For consistency, we consider a score of 2 to be the minimum for a compound to be considered active.
(§2) Maintenance of the S. mansoni (Naval Medical Research Institute (NMRI) isolate), life cycle involved male Golden Syrian Hamsters and Biomphalaria glabrata snails (NMRI isolate), as the definitive and intermediate hosts, respectively. Use of hamsters was approved by the Institutional Animal Care and Use Committee of the University of California San Diego. The preparation of somules (post-infective larvae derived from infectious larvae called cercariae) and adult worms (≥42-days-old), and their co-incubation with test compounds using a customized Basch incubation medium were as described. Screens of two developmental stages were employed in order to identify compounds with a potential broader spectrum of efficacy than the current drug, PZQ, which is deficient in this regard. Screens with somules employed 96-well round-bottomed plates and 40–50 animals/well, whereas screens with adults employed 24-well flat-bottomed plates and approximately 5–7 males and 2–3 females/well. Screens employed a final compound concentration of 10 µM in DMSO (at 0.5% and 0.1% final concentrations for somules and adults, respectively). The complex and often dynamic phenotypic responses that the schistosome parasite is capable of were observed using an Axiovert A1 inverted microscope at the times indicated in the data table. Observations were codified using a defined nomenclature that involves simple “descriptors”, to convey changes in shape, motility and appearance compared to DMSO controls. Each descriptor was given a value of 1 and these were added up to yield a “severity score” with a maximum of 4. Evidence of degeneracy or death was awarded a value of 4 for adult parasites specifically, the inability to adhere to the bottom of the well using oral or ventral suckers was given a score of 1 and damage to the tegument (surface) was awarded a value of 4 on the understanding that such damage in vivo would compromise survival. Scores were averaged across the two experiments.

[3] = system: S. mansoni somules (schistosomula, post-infective larvae); test: Phenotypic screen of S. mansoni somules (severity score); assay type: cell-based, Schistosoma mansoni; set-up: key to SOMULE DESCRIPTORS @ 10 µM, 24 h: Dark = dark; S = Slow; O = overactive; I = Immobile; R = shape altered from normal (either larger or smaller); Deg = degenerative changes; D = dead; pD = "partial death:" % of worms in a well that appear to be dead; details: for Somule Severity Score (10 µM) 24 h: score 0 (no effect) to 4 (maximum), averaged across two experiments; for SOMULE SEVERITY SCORES @ 10 µM, 24 / SOMULE SEVERITY SCORES @ 10 µM, 48 / SOMULE SEVERITY SCORES @ 10 µM, 72: score 0-4; for SOMULE SEVERITY SCORES @ 10 µM, 48 / Somule Severity Score (10 µM) 48 h: 48 h; for Somule Severity Score (10 µM) 48 h / Somule Severity Score (10 µM) 72 h: score 0 to 4
Description: as §1, §2

SMILES: Cc1ccc(-n2cc(Cn3c(C(C)N4C(=O)c5ccccc5C4=O)nc4ccccc43)nn2)cc1 (stereo not shown) [6z, 2-(1-(1-((1-(p-Tolyl)-1H-1,2,3-triazol-4-yl)methyl)-1H-benzo[d]imidazol-2-yl)ethyl)isoindoline-1,3-dione]
- IC50 [1]: > 100 µM
- EC50 [1]: > 100 µM
- ADULT SEVERITY SCORES @ 10 µM, 1 h [2]: 0
- Adult Severity Score (10 µM) 1 h [2]: 0
- ADULT SEVERITY SCORES @ 10 µM, 5 h ([2]; 5 h): 0
- Adult Severity Score (10 µM) 5 h ([2]; 5 h): 0
- ADULT SEVERITY SCORES @ 10 µM, 24 h ([2]; 24 h): 0
- Adult Severity Score (10 µM) 24 h ([2]; 24 h): 0
- SOMULE DESCRIPTORS @ 10 µM, 24 h ([3]; 24 h, phenotypic descriptors): R
- Somule Severity Score (10 µM) 24 h ([3]; 24 h): 1
- SOMULE SEVERITY SCORES @ 10 µM, 24 ([3]; 24 h): 1
- SOMULE SEVERITY SCORES @ 10 µM, 48 [3]: 0
- Somule Severity Score (10 µM) 48 h [3]: 0
- SOMULE SEVERITY SCORES @ 10 µM, 72 ([3]; 72 h): 0
- Somule Severity Score (10 µM) 72 h ([3]; 72 h): 0

SMILES: CCC(C)C(c1nc2ccccc2n1Cc1cn(-c2ccc(F)cc2F)nn1)N1C(=O)c2ccccc2C1=O (stereo not shown) [6w, 2-(1-(1-((1-(2,4-Difluorophenyl)-1H-1,2,3-triazol-4-yl)methyl)-1H-benzo[d]imidazol-2-yl)-2-methylbutyl)isoindoline-1,3-dione]
- IC50 [1]: > 100 µM
- EC50 [1]: > 100 µM
- ADULT SEVERITY SCORES @ 10 µM, 1 h [2]: 0
- Adult Severity Score (10 µM) 1 h [2]: 0
- ADULT DESCRIPTORS @ 10 µM, 5 h ([2]; 5 h, phenotypic descriptors): Unc, on sides
- ADULT SEVERITY SCORES @ 10 µM, 5 h ([2]; 5 h): 2
- Adult Severity Score (10 µM) 5 h ([2]; 5 h): 2
- ADULT DESCRIPTORS @ 10 µM, 24 h ([2]; 24 h, phenotypic descriptors): Unc, on sides
- ADULT SEVERITY SCORES @ 10 µM, 24 h ([2]; 24 h): 2
- Adult Severity Score (10 µM) 24 h ([2]; 24 h): 2
- Somule Severity Score (10 µM) 24 h ([3]; 24 h): 0
- SOMULE SEVERITY SCORES @ 10 µM, 24 ([3]; 24 h): 0
- SOMULE SEVERITY SCORES @ 10 µM, 48 [3]: 0
- Somule Severity Score (10 µM) 48 h [3]: 0
- SOMULE DESCRIPTORS @ 10 µM, 72 h ([3]; 72 h, phenotypic descriptors): pD50
- SOMULE SEVERITY SCORES @ 10 µM, 72 ([3]; 72 h): 2
- Somule Severity Score (10 µM) 72 h ([3]; 72 h): 2

SMILES: CC(c1nc2ccccc2n1Cc1cn(-c2ccc(F)cc2)nn1)N1C(=O)c2ccccc2C1=O (stereo not shown) [6y, 2-(1-(1-((1-(4-Fluorophenyl)-1H-1,2,3-triazol-4-yl)methyl)-1H-benzo[d]imidazol-2-yl)ethyl)isoindoline-1,3-dione]
- IC50 [1]: > 100 µM
- EC50 [1]: > 100 µM
- ADULT SEVERITY SCORES @ 10 µM, 1 h [2]: 0
- Adult Severity Score (10 µM) 1 h [2]: 0
- ADULT SEVERITY SCORES @ 10 µM, 5 h ([2]; 5 h): 0
- Adult Severity Score (10 µM) 5 h ([2]; 5 h): 0
- ADULT SEVERITY SCORES @ 10 µM, 24 h ([2]; 24 h): 0
- Adult Severity Score (10 µM) 24 h ([2]; 24 h): 0
- Somule Severity Score (10 µM) 24 h ([3]; 24 h): 0
- SOMULE SEVERITY SCORES @ 10 µM, 24 ([3]; 24 h): 0
- SOMULE SEVERITY SCORES @ 10 µM, 48 [3]: 0
- Somule Severity Score (10 µM) 48 h [3]: 0
- SOMULE SEVERITY SCORES @ 10 µM, 72 ([3]; 72 h): 0
- Somule Severity Score (10 µM) 72 h ([3]; 72 h): 0

SMILES: CCC(C)C(c1nc2ccccc2n1Cc1cn(-c2ccccc2F)nn1)N1C(=O)c2ccccc2C1=O (stereo not shown) [6v, 2-(1-(1-((1-(2-Fluorophenyl)-1H-1,2,3-triazol-4-yl)methyl)-1H-benzo[d]imidazol-2-yl)-2-methylbutyl)isoindoline-1,3-dione]
- IC50 [1]: > 100 µM
- EC50 [1]: > 100 µM
- ADULT SEVERITY SCORES @ 10 µM, 1 h [2]: 0
- Adult Severity Score (10 µM) 1 h [2]: 0
- ADULT SEVERITY SCORES @ 10 µM, 5 h ([2]; 5 h): 0
- Adult Severity Score (10 µM) 5 h ([2]; 5 h): 0
- ADULT SEVERITY SCORES @ 10 µM, 24 h ([2]; 24 h): 0
- Adult Severity Score (10 µM) 24 h ([2]; 24 h): 0
- Somule Severity Score (10 µM) 24 h ([3]; 24 h): 0
- SOMULE SEVERITY SCORES @ 10 µM, 24 ([3]; 24 h): 0
- SOMULE SEVERITY SCORES @ 10 µM, 48 [3]: 0
- Somule Severity Score (10 µM) 48 h [3]: 0
- SOMULE SEVERITY SCORES @ 10 µM, 72 ([3]; 72 h): 0
- Somule Severity Score (10 µM) 72 h ([3]; 72 h): 0

SMILES: COc1ccc(-n2cc(Cn3c(C(CC(C)C)N4C(=O)c5ccc(C)cc5C4=O)nc4ccccc43)nn2)cc1 (stereo not shown) [6h, 2-(1-(1-((1-(4-Methoxyphenyl)-1H-1,2,3-triazol-4-yl)methyl)-1H-benzo[d]imidazol-2-yl)-3-methylbutyl)-5-methylisoindoline-1,3-dione]
- melting point: 101 to 103 °C

SMILES: CC(c1nc2ccccc2n1Cc1cn(-c2ccccc2F)nn1)N1C(=O)c2ccccc2C1=O (stereo not shown) [6c’, 2-(1-(1-((1-(2-Fluorophenyl)-1H-1,2,3-triazol-4-yl)methyl)-1H-benzo[d]imidazol-2-yl)ethyl)isoindoline-1,3-dione]
- melting point: 186 to 188 °C

SMILES: CC(c1nc2ccccc2n1Cc1cn(Cc2ccccc2)nn1)N1C(=O)c2ccccc2C1=O (stereo not shown) [6e’, 2-(1-(1-((1-Benzyl-1H-1,2,3-triazol-4-yl)methyl)-1H-benzo[d]imidazol-2-yl)ethyl)isoindoline-1,3-dione]
- melting point: 181 to 183 °C

SMILES: Cc1ccc2c(c1)C(=O)N(C(CC(C)C)c1nc3ccccc3n1Cc1cn(-c3ccc(F)cc3)nn1)C2=O (stereo not shown) [6a, 2-(1-(1-((1-(4-Fluorophenyl)-1H-1,2,3-triazol-4-yl)methyl)-1H-benzo[d]imidazol-2-yl)-3-methylbutyl)-5-methylisoindoline-1,3-dione]
- melting point: 208 to 210 °C

SMILES: Cc1ccc2c(c1)C(=O)N(C(CC(C)C)c1nc3ccccc3n1Cc1c[nH]nn1)C2=O (stereo not shown) [6c, 2-(1-(1-((1H-1,2,3-Triazol-4-yl)methyl)-1H-benzo[d]imidazol-2-yl)-3-methylbutyl)-5-methylisoindoline-1,3-dione]
- melting point: 150 to 152 °C

SMILES: CC(c1nc2ccccc2n1Cc1c[nH]nn1)N1C(=O)c2ccccc2C1=O (stereo not shown) [6g’, 2-(1-(1-((1H-1,2,3-Triazol-4-yl)methyl)-1H-benzo[d]imidazol-2-yl)ethyl)isoindoline-1,3-dione]
- melting point: 97 to 99 °C

SMILES: CC(c1nc2ccccc2n1Cc1cn(-c2c(F)cccc2F)nn1)N1C(=O)c2ccccc2C1=O (stereo not shown) [6f’, 2-(1-(1-((1-(2,6-Difluorophenyl)-1H-1,2,3-triazol-4-yl)methyl)-1H-benzo[d]imidazol-2-yl)ethyl)isoindoline-1,3-dione]
- melting point: 94 to 96 °C

SMILES: Cc1ccc2c(c1)C(=O)N(C(CC(C)C)c1nc3ccccc3n1Cc1cn(Cc3ccccc3)nn1)C2=O (stereo not shown) [6f, 2-(1-(1-((1-Benzyl-1H-1,2,3-triazol-4-yl)methyl)-1H-benzo[d]imidazol-2-yl)-3-methylbutyl)-5-methylisoindoline-1,3-dione]
- melting point: 142 to 144 °C

SMILES: Cc1ccc2c(c1)C(=O)N(C(C)c1nc3ccccc3n1Cc1cn(Cc3ccccc3)nn1)C2=O (stereo not shown) [6m’, 2-(1-(1-((1-Benzyl-1H-1,2,3-triazol-4-yl)methyl)-1H-benzo[d]imidazol-2-yl)ethyl)-5-methylisoindoline-1,3-dione]
- melting point: 142 to 144 °C

SMILES: Cc1ccc2c(c1)C(=O)N(C(CC(C)C)c1nc3ccccc3n1Cc1cn(-c3ccccc3F)nn1)C2=O (stereo not shown) [6i, 2-(1-(1-((1-(2-Fluorophenyl)-1H-1,2,3-triazol-4-yl)methyl)-1H-benzo[d]imidazol-2-yl)-3-methylbutyl)-5-methylisoindoline-1,3-dione]
- melting point: 138 to 140 °C
